“And” between values parts separate entries of the source, which are not always exact repeats. Identical values can stand only once. Non-standard residues stand in square brackets, D forms with d. Residues, ends and D or L forms follow the SMILES beside them. *: point of attachment. dPhe(4-NHCONH2) = NC(=O)Nc1ccc(C[C@@H](N)C(=O)O)cc1; Dihydroorotyl(S) = O=C1C[C@@H](C(=O)*)NC(=O)N1; dPhe(4-Cl) = N[C@H](Cc1ccc(Cl)cc1)C(=O)O; Phe(4-NH2) = Nc1ccc(C[C@H](N)C(=O)O)cc1; d2Nal = N[C@H](Cc1ccc2ccccc2c1)C(=O)O; Lys(iPr) = CC(C)NCCCC[C@H](N)C(=O)O; d3Pal = N[C@H](Cc1cccnc1)C(=O)O
What was measured:
[1] = system: patients with rheumatoid arthritis; assay: Long term Degarelix treatment of rheumatoid arthritis patients: clinical variables; type: in vivo, human; parameters: LH: unit not given beside the values
Source text: [table] [table] […] Two examples of patients with continued RA improvement over several weeks despite stably low levels of LH

[2] = system: patients with rheumatoid arthritis; settings: human, in vivo
Source text: They were not taking any therapies for osteoporosis during this period.

patient with colitis = assay: Treatment of inflammatory bowel disease (fecal calprotectin, partial Mayo score); type: in vivo, human
Method: • person, diagnosed with colitis • Inflammatory bowel disease, colitis verified on colonic biopsy sample. Patients with inflammatory colitis usually have a higher incidence of autoimmune diseases. This patient also had ankylosing spondylitis. Experimental Treatment • September 2014 received first dose of Degarelix 240 mg sc. • Received Degarelix 80 mg sc approximately every two weeks thereafter. Assessment of Response • The inflammatory bowel diseases (IBD's), Crohn's disease and ulcerative colitis, are chronic relapsing, remitting disorders. The assessment of disease activity presents challenges to clinicians. Fecal biomarkers, such as fecal calprotectin, are a non-invasive method which can be used to aid managing clinicians. Calprotectin is released extracellularly in times of cell stress or damage and can be detected within feces and thus be used as a sensitive marker of intestinal inflammation. […] Fecal calprotectin levels are elevated in patients with both Crohn's disease and ulcerative colitis 1-2. There have been several studies looking at the use of fecal calprotectin to predict or monitor response to treatment. • In a study looking at 11 patients with relapsing IBD, fecal calprotectin was analysed at inclusion and after 8 weeks of treatment. Treatment was individualized medical therapy. A normalized fecal calprotectin concentration at 8 weeks predicted a complete response in 100% of patients,3 corresponding to endoscopic mucosal healing4. It has been shown that in patients with steroid induced clinical remission fecal calprotectin levels can remain elevated5-6. […] A level of <50 mg/kg is considered normal or remission for IBD. • There is no gold standard index in the measurement of colitis disease activity in clinical trials. Due to the invasive nature of endoscopies, the Mayo non-invasive colitis assessment of response score can be used to assess treatment effect of IBD in clinical trials9-11. […] Both the partial Mayo and total Mayo score are used to assess disease activity in clinical trials13. The partial Mayo score also had good discriminatory value between subjects in remission and those with active disease14. A clinical response has been defined as a 3 point or greater change in the partial Mayo score15.

[3] = system: patient with ankylosing spondylitis; assay: Treatment of ankylosing spondylitis patient (BASDAI, laboratory variables); type: in vivo, human; settings: AS patient
Source text: Diagnosed with ankylosing spondylitis in 1984, HLAB27 positive, with repeated iridocyclitis. Used non-steroidal anti-inflammatory drugs previously. They were offered the TNF-alpha inhibitor Golilimumab in 2010. Their disease activity score was 8.9 in October 2010 (see below for explanation of disease activity score) on initiating Golilimumab; by the June 2012 this score had reduced to 6.6, but by May 2013 the effect had worn off and their score was 7.6. May 2013, they initiated Enbrel treatment, but their disease activity increased from 7.6 to 8.3. Due to their poor response to TNF-alpha therapy, they were offered the GnRH antagonist Degarelix in September 2014.
Disease activity in ankylosing spondylitis is measured by the BASDAI (Bath Ankylosing Spondylitis Disease Activity Index1), has been extensively validated in clinical trials, 2, 3 and is one of the most commonly used outcome measures in clinical trials. This is a componsite index that evaluates fatigue, axial and peripheral pain, stiffness and enthesopathy. Their BASDAI was at 8.7 at baseline. In September 2014 they received their first dose of Degarelix 240 mg sc. By 2 weeks, their BASDAI had reduced to 6.8, and by 6 weeks it had reduced to 5.8. This is the lowest BASDAI score they have ever had since we first started using this method of assessment 4 years ago in 2010. Their morning stiffness lasted 4 hours at baseline, by 6 weeks their morning stiffness had reduced to 2 hours. They had their second dose of Degarelix 80 mg s.c in October 2014. Lumbar flexion and maximum arm abduction were increased after 6 weeks of treatment.
Response to therapy in clinical practice is defined as improvement of 2 units or 50% on a 0-10 scale of the BASDAI, and expert opinion that the treatment should be continued. Their reduction by 6 weeks was 2.9 units, and 7.1 units with an 82% BASDAI score improvement by 9 weeks, and we shall continue treatment. A BASDAI 50% improvement is defined as a major clinical response. […] For comparison, approximately 50-60% of patients achieve a BASDAI 50 by 12 weeks on TNF inhibitors (4). Their ESR has decreased from 46 mm to 23 mm, which is their lowest ESR reading in 19 years. […] By 9 weeks of GnRH antagonist therapy, their kidney function has normalized, and fasting glucose reduced from 7.4 to 6.5 mmol/L. By 3 months, the effect on their ankylosing spondylitis remained, creatinine was at 98 umol/L, with a glomerular filtration rate of 66 ml/min/1.73 m2 in December 2014.

Work on `CC(=O)N[C@H](Cc1ccc2ccccc2c1)C(=O)N[C@H](Cc1ccc(Cl)cc1)C(=O)N[C@H](Cc1cccnc1)C(=O)N[C@@H](CO)C(=O)N[C@@H](Cc1ccc(NC(=O)[C@@H]2CC(=O)NC(=O)N2)cc1)C(=O)N[C@H](Cc1ccc(NC(N)=O)cc1)C(=O)N[C@@H](CC(C)C)C(=O)N[C@@H](CCCCNC(C)C)C(=O)N1CCC[C@H]1C(=O)N[C@H](C)C(N)=O` [Degarelix] (Ac-[d2Nal][dPhe(4-Cl)][d3Pal]S[Phe(4-NH2)](Dihydroorotyl(S))[dPhe(4-NHCONH2)]L[Lys(iPr)]P[dA]-NH2) yielded an ACR % response ([1]; RA Patient 3, 4 wks) of 30%, an ESR ([1]; RA Patient 3, 4 wks) of 41 and an LH ([1]; RA Patient 3, 4 wks) of under 0.3. The ACR % response ([1]; RA Patient 3, 8 wks) was 40%, the ESR ([1]; RA Patient 3, 8 wks) was 36 and the LH ([1]; RA Patient 3, 8 wks) was under 0.3. For the same molecule, the ACR % response ([1]; RA Patient 3, 12 wks) was 50%, the ESR ([1]; RA Patient 3, 12 wks) was 20 and the LH ([1]; RA Patient 3, 12 wks) was under 0.3. For the same molecule, the ESR ([1]; RA Patient 3, baseline) was 46, the LH ([1]; RA Patient 3, baseline) was 2 and the ACR % response ([1]; RA Patient 4, 3½ wks) was 20%. It also gave an ESR ([1]; RA Patient 4, 3½ wks) of 68, an LH ([1]; RA Patient 4, 3½ wks) of under 0.3 and an ACR % response ([1]; RA Patient 4, 9 wks) of 50%. For the same molecule, the ESR ([1]; RA Patient 4, 9 wks) was 36, the LH ([1]; RA Patient 4, 9 wks) was under 0.3 and the ESR ([1]; RA Patient 4, baseline) was 78. For the same molecule, the LH ([1]; RA Patient 4, baseline) was 8, the “power Doppler (inflammatory activity) on ultrasound, shoulder and right MCP 4” value ([1]; RA Patient 5, after treatment (FIG. 2B, 2D, 2F)) was “no power Doppler” and the “effusion over the right wrist on ultrasound” value ([1]; RA Patient 6, by 3.5 weeks (FIG. 4)) was “much smaller”. For the same molecule, the “Physician assessment (0-100)” value ([1]; baseline, c1-c6=RA Patients 1-6) was 85 and 90 and 80 and 70, the “bone mineral density in hips” value [2] was “improved” and the “Fecal calprotectin (<50 normal)” value (patient with colitis; 02.10.14) was 48, normal mg/kg. For the same molecule, the “Fecal calprotectin (<50 normal)” value (patient with colitis; 10.01.15) was 32, normal mg/kg, the “Fecal calprotectin (<50 normal)” value (patient with colitis; 24.09.14 (started 10 Sep. 2014)) was 79, high mg/kg and the “partial Mayo score” value (patient with colitis; at 12 weeks) was 0. The “partial Mayo score” value (patient with colitis; baseline) was 3, the “ASAS response (at least 80% improvement)” value [3] was “achieved an ASAS 80” and the CRP ([3]; 10.09.14 (baseline)) was under 5. For the same molecule, the “Creatinine (60-105 umol/L)” value ([3]; 10.09.14 (baseline)) was 112↑ umol/L, the “ESR <20 mm” value ([3]; 10.09.14 (baseline)) was 46 mm and 46↑ mm and the “Glomerular filtration rate (>60 ml/min/1.73 m^2)” value ([3]; 10.09.14 (baseline)) was 56↓ ml/min/1.73 m^2. The “Glucose fasting (4.0-6.0 mmol/L)” value ([3]; 10.09.14 (baseline)) was 7.4 mmol/L, the “Urate (230-480 umol/L)” value ([3]; 10.09.14 (baseline)) was 515 umol/L and 515↑ umol/L and the CRP ([3]; 10.11.14) was under 5. The “Creatinine (60-105 umol/L)” value ([3]; 10.11.14) was 99 µmol/L, the “Glomerular filtration rate (>60 ml/min/1.73 m^2)” value ([3]; 10.11.14) was 65 ml/min/1.73 m^2 and the “Urate (230-480 umol/L)” value ([3]; 10.11.14) was 426 µmol/L. The “Glucose fasting (4.0-6.0 mmol/L)” value ([3]; 10.11.14 (by 9 weeks)) was 6.5 mmol/L, the CRP ([3]; 24.09.14) was under 5 and the “Creatinine (60-105 umol/L)” value ([3]; 24.09.14) was 114↑ umol/L. The “ESR <20 mm” value ([3]; 24.09.14) was 31↑ mm, the “Glomerular filtration rate (>60 ml/min/1.73 m^2)” value ([3]; 24.09.14) was 55↓ ml/min/1.73 m^2 and the “Urate (230-480 umol/L)” value ([3]; 24.09.14) was 512↑ umol/L. The CRP ([3]; 27.10.14) was under 5, the “Creatinine (60-105 umol/L)” value ([3]; 27.10.14) was 111↑ umol/L and the “ESR <20 mm” value ([3]; 27.10.14) was 28↑ mm. The “Glomerular filtration rate (>60 ml/min/1.73 m^2)” value ([3]; 27.10.14) was 56↓ ml/min/1.73 m^2, the “Urate (230-480 umol/L)” value ([3]; 27.10.14) was 495↑ umol/L and the “Lumbar flexion and maximum arm abduction” value ([3]; after 6 weeks of treatment) was “increased”. It also gave a BASDAI ([3]; baseline) of 8.7, a morning stiffness ([3]; baseline) of 4 h and a BASDAI ([3]; by 2 weeks) of 6.8. For the same molecule, the creatinine ([3]; by 3 months (December 2014)) was 98 µmol/L, the glomerular filtration rate ([3]; by 3 months (December 2014)) was 66 ml/min/1.73 m2 and the BASDAI ([3]; by 6 weeks) was 5.8. It also gave a BASDAI reduction ([3]; by 6 weeks) of 2.9 units, a morning stiffness ([3]; by 6 weeks) of 2 h and a BASDAI reduction ([3]; by 9 weeks) of 7.1 units. For the same molecule, the BASDAI score improvement ([3]; by 9 weeks) was 82% and the kidney function ([3]; by 9 weeks) was “normalized”.
